Measurements reported in patent publication US20260053811A1, “METHODS OF TREATING HYPERTENSION IN OBESE SUBJECTS” (Mineralys Therapeutics, Inc., priority 2022, published 2026).
Marks after values point to notes of the source that are not given here.

Tested on: hypertensive subjects
Assay: Seated automated office blood pressure (AOBP) in randomized, placebo-controlled, dose-ranging study
Type: in vivo, human
Parameters: Difference from placebo in change in blood pressure: unit not given here
Experimental: A randomized, double-blinded, placebo-controlled, dose-ranging, multicenter study was conducted to evaluate the effect of orally administered Compound A HBr on blood pressure for the treatment of hypertension in male and female subjects ≥18 years of age.
The study consists of two parts. For enrollment into Part 1 of the study, a subject's value of plasma renin activity (PRA) must be ≤1 ng/mL/h based on morning measurement. If the value of PRA >1 ng/mL/h based on morning measurement, then subjects may be eligible to enter Part 2 of the study.
For Part 1, 163 enrolled subjects ≥18 years of age were randomized into 6 equal treatment groups (1:1:1:1:1:1) to 12.5 mg BID, 25 mg BID, 12.5 mg QD, 50 mg QD, 100 mg QD, or placebo. After a review of interim clinical data, the 2 lowest dose levels (12.5 mg QD and 12.5 mg BID) were stopped for future randomization due to a lack of consistent meaningful reduction of blood pressure, but the patients randomized to that point remained in the study through completion. Thus, after the review of interim clinical data, subjects were randomized into 4 equal treatment groups (1:1:1:1) to 25 mg BID, 50 mg QD, 100 mg QD, or placebo.
For Part 2, 36 enrolled subjects ≥18 years of age were randomized (5:1) to either 100 mg QD Compound A HBr or placebo such that the Compound A HBr treatment group consisted of approximately 30 subjects and the placebo treatment group will consist of approximately 6 subjects.
Subjects orally administered the assigned study drug (Compound A HBr or placebo) according to the assigned dosing regimen for 8 weeks beginning on Study Day 1. All subjects in Part 1 (regardless of dosing group) received BID dosing to preserve the integrity of the blind; active drug is administered as the morning dose for all QD dose groups. Subjects returned to the research facility or were seen by the clinical investigator or approved home health care professional at the end of Study Weeks 1, 2, 3, 4, 5, 6, 7, and 8 (±2 days) for protocol-defined efficacy and safety assessments and procedures, assessment of adverse events (AEs), and confirmation of compliance with study drug usage. Subjects also completed a telephone visit and blood pressure (BP) check at home approximately 3 days post last dose of study drug. Subjects attended up to 14 full clinic visits, including a pre-Screening visit, a Screening/start of Placebo Run-in visit, a second visit during Placebo Run-in, a clinic visit to initiate the ABPM procedure, a Randomization visit, 8 weekly visits during double-blind treatment, and an end-of-study visit scheduled 4 weeks after the last study treatment for final efficacy and safety assessments.
An automated oscillometric sphygmomanometer device was used to measure the subjects' systolic and diastolic blood pressure in office after approximately 5 minutes of rest in the seated position.
The primary endpoint is the change in office-measured (mean of last 2 of 5 unattended measurements using an automated oscillometric sphygmomanometer device after approximately 5 minutes of rest in the seated position) systolic blood pressure (SBP) from baseline to the end of Study Week 8.
Secondary endpoints of this study were: • (a) Change in 24-hour ambulatory blood pressure monitoring (ABPM) parameters (systolic and diastolic) from baseline to the end of Study Week 7. • (b) Change in office-measured SBP from baseline to the end of Study Weeks 1, 2, 3, 4, 5, 6, and 7. • (c) Change in office-measured diastolic blood pressure (DBP) from baseline to the end of Study Weeks 1, 2, 3, 4, 5, 6, 7, and 8. • (d) Proportion of subjects who achieve office-measured BP of ≤130/80 mm Hg by the end of Study Week 8.

[1] = 100 mg QD Part 1, Week 8, Parts 1 & 2 model, FAS

CC(=O)N[C@H]1CC[C@H](NC(=O)CN2CCN(c3nncc(-c4ccc(C)cc4)n3)CC2)CC1 [Compound A HBr]
Placebo-adjusted reduction in AOBP SBP, concomitant use of thiazide diuretics (50 mg QD, Part 1, Week 8): −12.9 mmHg
Difference from placebo in change in blood pressure (50 mg QD, Thiazide No): −4.3
Difference from placebo in change in blood pressure (50 mg QD, Thiazide Yes): −13.2*
Seated AOBP DBP change from baseline (CFB), Mean (SD) (50 mg QD, Week 1, Part 1, FAS): −4.34 (8.86) mmHg
Seated AOBP DBP, Mean (SD) (50 mg QD, Week 1, Part 1, FAS): 80.54 (7.58) mmHg
Seated AOBP SBP change from baseline (CFB), Mean (SD) (50 mg QD, Week 1, Part 1, FAS): −8.32 (14.27) mmHg
Seated AOBP SBP, Mean (SD) (50 mg QD, Week 1, Part 1, FAS): 133.50 (12.23) mmHg
Seated AOBP DBP change from baseline (CFB), Mean (SD) (50 mg QD, Week 2, Part 1, FAS): −5.91 (7.38) mmHg
Seated AOBP DBP, Mean (SD) (50 mg QD, Week 2, Part 1, FAS): 78.96 (8.27) mmHg
Seated AOBP SBP change from baseline (CFB), Mean (SD) (50 mg QD, Week 2, Part 1, FAS): −9.54 (13.78) mmHg
Seated AOBP SBP, Mean (SD) (50 mg QD, Week 2, Part 1, FAS): 132.29 (10.55) mmHg
Seated AOBP DBP change from baseline (CFB), Mean (SD) (50 mg QD, Week 3, Part 1, FAS): −3.84 (8.83) mmHg
Seated AOBP DBP, Mean (SD) (50 mg QD, Week 3, Part 1, FAS): 81.04 (9.15) mmHg
Seated AOBP SBP change from baseline (CFB), Mean (SD) (50 mg QD, Week 3, Part 1, FAS): −9.50 (16.67) mmHg
Seated AOBP SBP, Mean (SD) (50 mg QD, Week 3, Part 1, FAS): 132.32 (13.45) mmHg
LSM Δ with Placebo, seated AOBP DBP (MMRM) (50 mg QD, Week 4, Part 1, FAS): −3.95 mmHg
Modelled (MMRM) LSM (SEM) change from baseline, seated AOBP DBP (50 mg QD, Week 4, Part 1, FAS): −4.49 (1.41) mmHg
Seated AOBP DBP change from baseline (CFB), Mean (SD) (50 mg QD, Week 4, Part 1, FAS): −5.30 (8.33) mmHg
Seated AOBP DBP, Mean (SD) (50 mg QD, Week 4, Part 1, FAS): 79.57 (8.36) mmHg
Seated AOBP SBP change from baseline (CFB), Mean (SD) (50 mg QD, Week 4, Part 1, FAS): −9.07 (15.77) mmHg
Seated AOBP SBP, Mean (SD) (50 mg QD, Week 4, Part 1, FAS): 132.75 (11.85) mmHg
Seated AOBP DBP change from baseline (CFB), Mean (SD) (50 mg QD, Week 5, Part 1, FAS): −6.10 (7.22) mmHg
Seated AOBP DBP, Mean (SD) (50 mg QD, Week 5, Part 1, FAS): 78.58 (7.53) mmHg
Seated AOBP SBP change from baseline (CFB), Mean (SD) (50 mg QD, Week 5, Part 1, FAS): −8.38 (15.19) mmHg
Seated AOBP SBP, Mean (SD) (50 mg QD, Week 5, Part 1, FAS): 134.27 (15.39) mmHg
Seated AOBP DBP change from baseline (CFB), Mean (SD) (50 mg QD, Week 6, Part 1, FAS): −6.26 (8.48) mmHg
Seated AOBP DBP, Mean (SD) (50 mg QD, Week 6, Part 1, FAS): 78.63 (8.17) mmHg
Seated AOBP SBP change from baseline (CFB), Mean (SD) (50 mg QD, Week 6, Part 1, FAS): −10.72 (14.86) mmHg
Seated AOBP SBP, Mean (SD) (50 mg QD, Week 6, Part 1, FAS): 131.11 (12.49) mmHg
Seated AOBP DBP change from baseline (CFB), Mean (SD) (50 mg QD, Week 7, Part 1, FAS): −3.75 (11.03) mmHg
Seated AOBP DBP, Mean (SD) (50 mg QD, Week 7, Part 1, FAS): 80.88 (11.41) mmHg
Seated AOBP SBP change from baseline (CFB), Mean (SD) (50 mg QD, Week 7, Part 1, FAS): −7.69 (18.91) mmHg
Seated AOBP SBP, Mean (SD) (50 mg QD, Week 7, Part 1, FAS): 133.19 (16.39) mmHg
LSM Δ from Placebo, change from baseline in seated AOBP SBP (MMRM) (50 mg QD, Week 8, Part 1, FAS): −9.58 mmHg
LSM Δ with Placebo, seated AOBP DBP (MMRM) (50 mg QD, Week 8, Part 1, FAS): −5.46 mmHg
Modelled (MMRM) LSM (SEM) change from baseline, seated AOBP DBP (50 mg QD, Week 8, Part 1, FAS): −7.09 (1.70) mmHg
Modelled (MMRM) LSM (SEM) change from baseline, seated AOBP SBP (50 mg QD, Week 8, Part 1, FAS): −13.69 (2.67) mmHg
Seated AOBP DBP change from baseline (CFB), Mean (SD) (50 mg QD, Week 8, Part 1, FAS): −8.05 (9.13) mmHg
Seated AOBP DBP, Mean (SD) (50 mg QD, Week 8, Part 1, FAS): 76.82 (9.82) mmHg
Seated AOBP SBP change from baseline (CFB), Mean (SD) (50 mg QD, Week 8, Part 1, FAS): −13.18 (17.17) mmHg
Seated AOBP SBP, Mean (SD) (50 mg QD, Week 8, Part 1, FAS): 128.64 (13.69) mmHg
Subjects with seated AOBP SBP/DBP ≤130/80 mmHg: No (50 mg QD, Week 8, Part 1, FAS): 16 (57.1) n (%)
Subjects with seated AOBP SBP/DBP ≤130/80 mmHg: Yes (50 mg QD, Week 8, Part 1, FAS): 12 (42.9) n (%)
Modelled (MMRM) LSM (SEM) change from baseline, seated AOBP DBP (100 mg QD Part 1, Week 4, Parts 1 & 2 model, FAS): −5.88 (1.49) mmHg
Modelled (MMRM) LSM (SEM) change from baseline, seated AOBP DBP [1]: −4.57 (1.53) mmHg
Modelled (MMRM) LSM (SEM) change from baseline, seated AOBP SBP [1]: −12.08 (2.68) mmHg
